Our source for the IC50 values is PubChem BioAssay AID1053204 (The Scripps Research Institute Molecular Screening Center, 2014).

Calls of active or inactive are those of the source.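 How the source made its calls: active means IC50 of 10 µM or lower; inactive means IC50 above 10 µM.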

The subject of the assay is T. brucei BSF 427 growth, AlamarBlue, 48 h. The experiment in a line: growth inhibition of T. brucei bloodstream parasites, dose response, counter-screen for T. brucei MetRS inhibitor project, absorbance, assay provider, round 3 (AID 1053204).
Regarding `CCN(CC)C(=O)C(=O)c1cn(CCNc2cc(Oc3ccccc3)cc(C(F)(F)F)c2)c2ccccc12`, the IC50 (in general, the concentration needed to halve the response being measured) was 4080 nM.
Take `CCN(CC)C(=O)C(=O)c1cn(CC(=O)Nc2cc(Oc3ccc(OC)cc3)cc(C(F)(F)F)c2)c2ccccc12`: the IC50 was 830 nM.
Turning to `O=C(Cc1ccc(Nc2nc3ccc(Br)cc3[nH]2)cc1)NCCc1cccs1`, the half-maximal inhibitory concentration (IC50) is 8910 nM.
Consider `CCN(CC)C(=O)C(=O)c1cn(CC(=O)Nc2cc(Oc3ccccc3F)cc(C(F)(F)F)c2)c2ccccc12`, for which the half-inhibitory concentration (IC50) is 1630 nM.
Consider `CCN(CC)C(=O)C(=O)c1cn(CC(=O)Nc2cc(Oc3ccccc3OC)cc(C(F)(F)F)c2)c2ccccc12`, for which the IC50 was 952 nM.
Consider `Nc1c(Cl)ncnc1Nc1ccc(C(=O)O)cc1`, for which the IC50 is > 10000 nM (inactive).
Regarding `CCN(CC)C(=O)Cc1cn(CC(=O)Nc2cccc(C(F)(F)F)c2)c2ccccc12`, the IC50 was > 10000 nM (inactive).
Turning to `O=C(Cn1cc(C(=O)C(=O)NCc2ccccc2)c2ccccc21)Nc1cc(Oc2ccccc2)cc(C(F)(F)F)c1`, the half-maximal inhibitory concentration (IC50) was 916 nM.
`CCN(CC)C(=O)C(=O)c1cn(CCNc2cccc(C(F)(F)F)c2)c2ccccc12`: the IC50 is 5500 nM.
Take `CCN(CC)C(=O)C(=O)c1cn(CC(=O)Nc2cc(Oc3ccc(F)cc3)cc(C(F)(F)F)c2)c2ccccc12`: the IC50 was 1420 nM.
